# According to patent US20230277569A1, “Compositions and Methods for Treating, Ameliorating and/or Preventing Cancer and Kits for the Same” (priority 2022, published 2023):
# Experiment: Phase I, cytochrome P450-mediated human liver microsome metabolism
# Settings: 0.5 μM; human liver microsomes
compound,measurement,value
"Cc1ncc2n1-c1ccc(Cl)cc1C(c1ccccc1F)=NC2 [Midazolam, reference compound]",elimination rate constant (k),0.04
same,intrinsic clearance (CLint),3.23 mL/min/g
